Measured values as given in US7132547B2, “Preventives/remedies for urinary disturbance” (priority 2001, dated 2006).

Molecular target: T1, human adrenaline α1A receptor (Homo sapiens, UniProt P35348)
T1 construct: expressed in transfected cells; membrane fraction
T1 sequence (P35348 1-466): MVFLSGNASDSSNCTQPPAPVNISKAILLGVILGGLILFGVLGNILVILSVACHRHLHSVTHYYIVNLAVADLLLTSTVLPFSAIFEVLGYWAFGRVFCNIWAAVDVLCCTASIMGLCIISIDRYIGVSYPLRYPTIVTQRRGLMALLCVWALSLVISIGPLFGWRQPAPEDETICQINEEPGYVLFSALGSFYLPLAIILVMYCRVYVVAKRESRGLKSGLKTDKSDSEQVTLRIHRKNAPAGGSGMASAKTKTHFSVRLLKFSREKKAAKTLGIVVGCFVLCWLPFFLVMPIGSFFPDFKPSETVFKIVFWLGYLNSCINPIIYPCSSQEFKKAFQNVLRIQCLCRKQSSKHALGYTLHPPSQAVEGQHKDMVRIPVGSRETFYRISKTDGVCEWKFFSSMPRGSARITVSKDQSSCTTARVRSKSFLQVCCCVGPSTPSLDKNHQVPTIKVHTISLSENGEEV
Test: Measurement of α1A receptor binding inhibitory activity ([3H]-Prazosin binding to CHO-K1 membrane fraction)
Conditions: concentration reducing [3H]-Prazosin (2.5 nM) binding to the membrane fraction to 50%
Experimental: b) Measurement of α1A Receptor Binding Inhibitory Activity
The following gene manipulation method was carried out according to the method described in a textbook (Miniatis et al., Molecular Cloning, Cold Spring Harbor Laboratory, 1989) or the method described in protocol attached to a reagent.
(i) Preparation of Expression Plasmid for Human Adrenaline α1A Receptor
An adrenaline α1A receptor gene was cloned from a human liver cDNA by a PCR method. A PCR reaction was performed with Gene Amp PCR System 9700 (Applied Biosystems) using 200 ng of a human liver cDNA library (TAKARA SHUZO Co., Ltd.) as a template and using TaKaRa Pyrobest DNA Polymerase (TAKARA SHUZO CO., Ltd) and adding each 50 pmol of a primer set 5′-[…]-3′ [SEQ ID No.: 1] and 5′-[…]-3[SEQ ID No.: 2] prepared making reference to a nucleotide sequence of an adrenaline α1A receptor gene which was reported by Hirasawa A. et al. (Biochem. Biophys. Res. Commun., 195, 902–909(1993)) (reaction condition: 45 cycles of 15 seconds at 94° C., and 3 minutes 30 seconds at 68° C.).
The obtained PCR fragment was digested with restriction enzymes Eco RI (TAKARA SHUZO Co. Ltd.) and Sal I. (TAKARA SHUZO Co. Ltd.), and agarose gel electrophoresis was performed to recover DNA fragments. The DNA fragments were mixed with an animal cell expression plasmid pMSR αneo (Administration No. A99–0013) which had been digested with Eco RI and Sal I, ligated with DNA Ligation Kit Ver. 2 (TAKARA SHUZO Co. Ltd.), and a competent cell of Esherichia coli JM109 was transformed to obtain a plasmid pMSR αneoA dreα1A.
(ii) Introduction of Plasmid for Expression of Human Adrenaline α1A Receptor into CHO-K1 Cell and Preparation of Membrane Fraction
CHO-K1 cells which had been subcultured in a 150 cm^2 culturing flask (Corning Coaster) using Ham F12 medium (Invitrogen) containing 10% fetal bovine serum (TRACE SCIENTIFIC) was peeled with 0.5 g/L trypsin-0.2 g/L EDTA(Invitrogen), cells were washed with D-PBS(−) (Invitrogen), centrifuged (1000 rpm, 5 min.), and suspended in D-PBS(−). […]

COc1ccccc1CCNCCCCCC(=O)c1cc2c3c(c1)CCN3C(=O)CC2.Cl [Example 20, 8-(6-[[2-(2-Methoxyphenyl)ethyl]amino]hexanoyl]-1,2,5,6-tetrahydro-4H-pyrrolo[3,2,1-ij]quinolin-4-one hydrochloride]
IC50: 0.165 µM
